Results from article PMC7486406, “A flavin-dependent monooxygenase catalyzes the initial step in cyanogenic glycoside synthesis in ferns” (Communications Biology, 2020).

B1: Pteridium aquilinum fern oxime synthase 1 (PaqFOS1), recombinant with N-terminal 6xHis tag (enzyme, UniProt A0A7H1KPE2 1-543, looked up)
chain: MAPNVPSAMYTTCLPERTALQEKLSGDRAALAARVCIVGAGVTGLCACKHLLQHGVESVVLEMQTGVGGVWRNTFSSTKLQTPRDAFQYSDFLWPPGTPRLPSHAQVLDYLESYARKFQVLERIVFNCRVLEVRRLDLEGPPPVSAFQKLPANAKWAVRVQQGSADLTQLDAEWLYFEYVLVCVGHYGDIAKTPKFAVPSKGPQAFHGKVLHSLDYSKLDEAATKKLLTGKRVIVVGSRKSALDAVMEASNSNRGPDGKPVTLLFRTPHWVIAHHFFYGIPMSYMTSRFSQLLVPQPGGGSTLHDIISAALSPLRWALSKALEFYLLSTLPLAEHGFVPNQNIFEEFKSCKLTLLPEHFFDYVKEGHIKLQKTSTWCFSSNGVTLPNGDELEADVIILCTGYEGERKIKSLLGTSFEDILQENDSSIPLYRGVLPPRIPNMAILGFQESYSNLFSAEMSARWVAYWIAGKIALPNKEIMEMEAYKWLRNTKPFMTINDKTCVNTTALQLADQMCRDMGWNSRRKKSLLQEIFAPYGNMDYKDE
notes: identical to the 543 aa ORF of Pa22758 except for a single amino acid substitution; calculated mass 62.5 kDa; codon optimized for E. coli; No removal of the His tag is described; also called Paq18302; Paq18302 FMO
B2: Arabidopsis thaliana flavin-dependent monooxygenase 1 (AtFMO1), recombinant with upstream 6xHis tag (enzyme, A. thaliana, UniProt Q9LMA1 1-530, looked up)
chain: MASNYDKLTSSRVAIIGAGVSGLAAAKNLVHHNPTVFEASDSVGGVWRSCTYETTKLQSARVDYEFSDFPWPNNRDDTTFPPYLEILDYLESYAKHFDLLKFMKFGSKVIEVRFIGDGETPQMVDLGAYGNLLPGKPVWEVAVQIGDSGDIQWHAFEFVVVCTGKYGDVPRIPAFPAKKGPEMFQGKVMHSMDYCKLEKEEASTLLSGKKVAVIGFKKSAIDLALESALANQGEGGKACTMVVRTTHWGIPHYWVWGLPFFLFYSSRASQFLHDRPNQSFLRTLFCLLFSLLRAVVSKFIESYVLWKLPLEKYGLKPNHSFEEDYASCQMAIIPENFFEEADKGMIRFKKSSKWWFYEEGIVFEDGTTLEADVVILATGYDGKKKLKAIVPEPFRTWLEFPSGVMPLYRGTIHPLIPNMGFVGYVQSSSNLHTSELRSMWLSRLVDEKFRLPSKEKMLDQFLKEMEVTRNSSRFYKRHCISTFSIQHADDMCNDMGLNPWRKSNFLLEAFSPYGSQDYRLGQEEKEDMTA
notes: AtFMO1 from Arabidopsis thaliana (Q9LMA1), codon optimized for E. coli; The methods describe the isolation for PaqFOS1 only; AtFMO1 is said to have been expressed and isolated in parallel; source: E. coli BL21(DE3)-R3, pET-30a(+), expressed and isolated in parallel to PaqFOS1

Key:
[1] = biological target: T1, PaqFOS1 (Pteridium aquilinum, UniProt A0A7H1KPE2); experiment: absorbance spectrometry; SEC monitored at […] nm; type: binding; conditions: cofactor of the isolated protein; 50 mM HEPES pH 7.5, 150 mM NaCl, 0.5 mM TCEP
T1 construct: gene FOS1; full-length, N-terminal 6xHis, codon-optimised, pET-30a(+), E. coli BL21(DE3)-R3; methods print contig as Paq18305

[2] = biological target: T1, PaqFOS1; experiment: absorbance spectrometry; SEC monitored at […] nm; type: binding; conditions: cofactor of the isolated protein; 50 mM HEPES pH 7.5, 150 mM NaCl, 0.5 mM TCEP; remark: listed apart in the source
[3] = biological target: the molecule itself; experiment: SEC; HiLoad 16/60 Superdex 200 calibrated with a high molecular weight kit (43 to 669 kDa); 50 mM HEPES pH 7.5, 150 mM NaCl, 0.5 mM TCEP; after His-Trap purification; self-association (dimer)

| Molecule | stoichiometry N [3] | further results |
| --- | --- | --- |
| Cc1cc2nc3c(=O)[nH]c(=O)nc-3n(C[C@H](O)[C@H](O)[C@H](O)COP(=O)(O)OP(=O)(O)OC[C@H]3O[C@@H](n4cnc5c(N)ncnc54)[C@H](O)[C@@H]3O)c2cc1C [FAD] |  | absorbance spectrometry; SEC monitored at 450 nm [1]: The isolated PaqFOS1 protein binds the cofactors FAD and NADPH as demonstrated by absorbance spectrometry |
| NC(=O)C1=CN([C@@H]2O[C@H](COP(=O)(O)OP(=O)(O)OC[C@H]3O[C@@H](n4cnc5c(N)ncnc54)[C@H](OP(=O)(O)O)[C@@H]3O)[C@@H](O)[C@H]2O)C=CC1 [NADPH] |  | absorbance spectrometry; SEC monitored at 254 nm [2]: The isolated PaqFOS1 protein binds the cofactors FAD and NADPH as demonstrated by absorbance spectrometry |
| B1 | 2 |  |
| B2 | 2 |  |
